Several values for one entry are separate records, joined by “and”; a condition that tells them apart may be missing. Equal entries are not always repeated.
What was measured:
Details in all cases: treatment: drug alone; 5 days
[1] = system: ACHN; experiment: GI50, drug alone; higher = less potent
Description: (§1)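 Primary HTS: 8 RCC cell lines treated with 8 doses (up to 10 uM) of each library drug alone for 5 days; viability read by CellTiter-Glo and normalised to DMSO. GI50 was fitted with XLfit (4-parameter), AUC is the area under the dose-response curve, and minimum viability is the lowest fraction of DMSO viability across doses.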

[2] = system: 786-O; experiment: GI50, drug alone; higher = less potent
Description: as §1

[3] = system: SN12C; experiment: GI50, drug alone; higher = less potent
Description: as §1

[4] = system: TK-10; experiment: GI50, drug alone; higher = less potent
Description: as §1

[5] = system: CAKI-1; experiment: GI50, drug alone; higher = less potent
Description: as §1

[6] = system: UO-31; experiment: GI50, drug alone; higher = less potent
Description: as §1

[7] = system: 769-P; experiment: GI50, drug alone; higher = less potent
Description: as §1

[8] = system: A498; experiment: GI50, drug alone; higher = less potent
Description: as §1

[9] = system: ACHN; experiment: AUC of dose-response viability curve, drug alone (arbitrary (AUC of normalised viability)); higher = less growth inhibition
Description: as §1

[10] = system: 786-O; experiment: as above
Description: as §1

[11] = system: SN12C; experiment: as above
Description: as §1

[12] = system: TK-10; experiment: as above
Description: as §1

[13] = system: CAKI-1; experiment: as above
Description: as §1

[14] = system: UO-31; experiment: as above
Description: as §1

[15] = system: 769-P; experiment: as above
Description: as §1

[16] = system: A498; experiment: as above
Description: as §1

[17] = system: ACHN; experiment: minimum viability across doses, drug alone, relative to DMSO (fraction); higher = less growth inhibition
Description: as §1

[18] = system: 786-O; experiment: as above
Description: as §1

[19] = system: SN12C; experiment: as above
Description: as §1

[20] = system: TK-10; experiment: as above
Description: as §1

[21] = system: CAKI-1; experiment: as above
Description: as §1

[22] = system: UO-31; experiment: as above
Description: as §1

[23] = system: 769-P; experiment: as above
Description: as §1

[24] = system: A498; experiment: as above
Description: as §1

Row | SMILES | GI50, drug alone [1] | GI50, drug alone [2] | GI50, drug alone [3] | GI50, drug alone [4] | GI50, drug alone [5] | GI50, drug alone [6] | GI50, drug alone [7] | GI50, drug alone [8] | AUC of dose-response viability curve [9] | AUC of dose-response viability curve [10] | AUC of dose-response viability curve [11] | AUC of dose-response viability curve [12] | AUC of dose-response viability curve [13] | AUC of dose-response viability curve [14] | AUC of dose-response viability curve [15] | AUC of dose-response viability curve [16] | minimum viability across doses [17] | minimum viability across doses [18] | minimum viability across doses [19] | minimum viability across doses [20] | minimum viability across doses [21] | minimum viability across doses [22] | minimum viability across doses [23] | minimum viability across doses [24]
1 | Cc1ncc(-c2ccnc(Nc3ccc(S(C)(=O)=O)cc3)n2)n1C(C)C [AZD5438] | 654 nM | 186 nM | 1480 nM | 759 nM | 1640 nM | 258 nM | 910 nM | 1230 nM | 2.39 | 1.66 | 2.45 | 2.49 | 2.97 | 2.19 | 2.6 | 2.44 | 0.0146 | 0.00317 | 0.0183 | 0.142 | 0.131 | 0.00721 | 0.0207 | 0.00858
2 | Cc1nc(NC(=O)N2CCC[C@H]2C(N)=O)sc1-c1ccnc(C(C)(C)C(F)(F)F)c1 [BYL719] | 8550 nM | 1650 nM | > 10000 nM | 4800 nM | > 10000 nM | > 10000 nM | > 10000 nM | > 10000 nM | 2.83 | 1.81 | 2.83 | 2.54 | 3.13 | 3.94 | 3.47 | 4.11 | 0.396 | 0.155 | 0.638 | 0.404 | 0.502 | 0.927 | 0.762 | 0.982
3 | O=C(Cc1ccc(-c2ccc(OCCN3CCOCC3)cc2)cn1)NCc1ccccc1 [KX2-391] | 75.5 nM | 26.8 nM | 115 nM | 193 nM | 79.7 nM | 85.2 nM | 60.6 nM | 89.3 nM | 1.66 | 0.9 | 1.72 | 1.95 | 1.67 | 1.48 | 1.43 | 1.84 | 0.113 | 0.00471 | 0.102 | 0.27 | 0.142 | 0.00967 | 0.0797 | 0.177
4 | CCn1c(-c2nonc2N)nc2c(C#CC(C)(C)O)ncc(OC[C@H]3CCCNC3)c21 | 9280 nM | 396 nM | > 10000 nM | 4510 nM | 5920 nM | > 10000 nM | > 10000 nM | > 10000 nM | 3.03 | 1.97 | 3.06 | 2.59 | 2.74 | 3.19 | 3.15 | 3.82 | 0.434 | 0.288 | 0.693 | 0.469 | 0.432 | 0.769 | 0.839 | 0.979
5 | CNC(=O)c1ccccc1Nc1nc(Nc2ccc(N3CCOCC3)cc2OC)ncc1Cl [NVP-TAE226] | 962 nM | 52.8 nM | 5140 nM | 551 nM | 1360 nM | 8150 nM | 2760 nM | > 10000 nM | 2.43 | 1.15 | 2.95 | 2.12 | 2.64 | 3.21 | 2.93 | 4.76 | 0.102 | 0.00915 | 0.295 | 0.102 | 0.0558 | 0.398 | 0.29 | 0.703
6 | CNC(=O)c1ccc(C)c(-n2c(C)cc(OCc3ccc(F)cc3F)c(Br)c2=O)c1 | 4720 nM | < 3 nM | > 10000 nM | > 10000 nM | > 10000 nM | > 10000 nM | > 10000 nM | > 10000 nM | 2.53 | 1.88 | 2.94 | 2.51 | 3.1 | 3.74 | 3.15 | 4.54 | 0.464 | 0.437 | 0.738 | 0.596 | 0.705 | 0.835 | 0.765 | 1.12
7 | CC(C)(C)Cn1c(N)nc2ccc(-c3[nH]c(C(C)(C)C)nc3-c3ccc(F)cc3)nc21.CS(=O)(=O)O.CS(=O)(=O)O | 2190 nM | > 10000 nM | > 10000 nM | 6630 nM | 8160 nM | > 10000 nM | > 10000 nM | > 10000 nM | 2.41 | 2.91 | 3.15 | 2.43 | 2.63 | 3.5 | 2.98 | 4.16 | 0.407 | 0.636 | 0.811 | 0.564 | 0.512 | 0.733 | 0.709 | 0.972
8 | CN1CCN(c2ccc([N+](=O)[O-])c3no[n+]([O-])c23)CC1 | > 10000 nM | > 10000 nM | > 10000 nM | > 10000 nM | > 10000 nM | > 10000 nM | > 10000 nM | > 10000 nM | 2.98 | 2.38 | 3.13 | 2.91 | 3.27 | 3.8 | 2.59 | 3.92 | 0.822 | 0.536 | 0.832 | 0.3 | 0.881 | 0.867 | 0.865 | 0.889
9 | Cc1ccc(C(=O)Nc2cccc(C(F)(F)F)c2)cc1Nc1nc(-c2cccnc2)nc2c1cnn2C [NVP-BHG712] | 1900 nM | 809 nM | 4560 nM | 1340 nM | 2450 nM | 8280 nM | 3810 nM | 8450 nM | 2.89 | 2.18 | 3.15 | 2.45 | 3.03 | 5.14 | 3.13 | 3.97 | 0.109 | 0.00203 | 0.0886 | 0.0678 | 0.0328 | 0.00612 | 0.06 | 0.023
10 | COCCOc1ccc2c(c1)ncn2-c1ccc2cccc(N3CCC(N)CC3)c2n1 | 2480 nM | 631 nM | 2800 nM | 2120 nM | 2110 nM | 2910 nM | 6040 nM | 3300 nM | 2.7 | 1.81 | 2.92 | 2.43 | 2.66 | 3.38 | 3.12 | 3.27 | 0.0176 | 0.00547 | 0.0384 | 0.198 | 0.292 | 0.00652 | 0.333 | 0.0414
11 | COc1ccc(S(=O)(=O)N(C(C)=O)c2ccccc2/C=C/c2cc[n+]([O-])cc2)cc1 [HMN-214] | 262 nM | 116 nM | 714 nM | 694 nM | 293 nM | 455 nM | 541 nM | 378 nM | 2.14 | 1.3 | 2.47 | 2.14 | 2.1 | 2.75 | 2.36 | 2.36 | 0.127 | 0.00365 | 0.167 | 0.285 | 0.182 | 0.00366 | 0.0968 | 0.119
12 | Nc1nc(N)c2nc(-c3cccc(O)c3)cnc2n1 | 5790 nM | 2470 nM | 3880 nM | 5110 nM | 6290 nM | > 10000 nM | > 10000 nM | 9220 nM | 3.02 | 2.45 | 2.97 | 2.98 | 3.43 | 4.59 | 3.59 | 3.31 | 0.35 | 0.0664 | 0.254 | 0.32 | 0.275 | 0.588 | 0.971 | 0.252
13 | C#Cc1cccc(Nc2ncnc3cc(OCCOC)c(OCCO)cc23)c1 | 472 nM | > 10000 nM | > 10000 nM | 2610 nM | 2840 nM | > 10000 nM | 3480 nM | > 10000 nM | 2.13 | 2.98 | 3.24 | 2.39 | 2.93 | 4.22 | 2.71 | 4.38 | 0.097 | 0.531 | 0.645 | 0.402 | 0.159 | 1.05 | 0.396 | 0.994
14 | Cc1cc(Nc2nc(N[C@@H](C)c3ccc(F)cc3)c(C#N)cc2F)n[nH]1 [AZ 960] | 1070 nM | 259 nM | 1680 nM | 1840 nM | 628 nM | 789 nM | 1230 nM | 3300 nM | 2.48 | 1.57 | 2.5 | 2.44 | 2.15 | 2.52 | 2.51 | 2.86 | 0.129 | 0.00178 | 0.252 | 0.133 | 0.0231 | 0.00541 | 0.0819 | 0.391
15 | Nc1ccc(-c2ccc3ncc4ccc(=O)n(-c5cccc(C(F)(F)F)c5)c4c3c2)cn1 [Torin 2] | 9.67 nM | 6.39 nM | 20.3 nM |  | 32.2 nM | 12 nM | 39.8 nM | 35.4 nM | 0.678 | 0.512 | 1.02 | 0.982 | 1.07 | 0.591 | 1.2 | 1.25 | 0.0442 | 0.00282 | 0.0362 | 0.0151 | 0.0161 | 0.0112 | 0.0587 | 0.0258
16 | Cc1ccc(C(=O)Nc2ccc(CN3CCN(C)CC3)c(C(F)(F)F)c2)cc1C#Cc1cnc2cccnn12 | 327 nM | 936 nM | 942 nM | 531 nM | 486 nM | 1250 nM | 2210 nM | 2090 nM |  |  |  |  |  |  |  |  |  |  |  |  |  |  |  | 
17 | CN(C[C@@H]1COCCO1)S(=O)(=O)Nc1ccc2ccc3ncc(-c4cnn(C)c4)cc3c(=O)c2c1 [MK-2461] | 1720 nM | > 10000 nM | > 10000 nM | > 10000 nM | 1120 nM | > 10000 nM | > 10000 nM | > 10000 nM | 2.6 | 5.52 | 3.09 | 2.8 | 2.48 |  | 3.6 | 7.41 | 0.217 | 0.653 | 0.727 | 0.649 | 0.0916 | 1.03 | 0.772 | 0.968
18 | Cc1cnc(Nc2ccc(N3CCN(C)CC3)cc2)nc1Nc1cccc(S(=O)(=O)NC(C)(C)C)c1 | 394 nM and 247 nM | 1630 nM and 1100 nM | 2190 nM and 1470 nM | 596 nM and 364 nM | 523 nM and 494 nM | 3060 nM and 2230 nM | 3640 nM and 1860 nM | 8980 nM and 9200 nM | 2.1 and 1.82 | 2.78 and 2.6 | 2.78 and 2.61 | 2.15 and 1.95 | 2.2 and 2.24 | 3.84 and 3.52 | 2.9 and 2.62 | 3.84 and 4.19 | 0.00241 and 0.0043 | 0.011 and 0.00951 |  | 0.00169 and 0.00288 |  | 0.0126 and 0.00902 | 0.0716 and 0.0287 | 0.19 and 0.161

From the supplement of paper PMC8149375
